# Test results taken from the supplement of paper PMC5844555.
# How the values were obtained:
# Experiment in all cases: 3' UTR reporter interaction score (median-centred robust z-score of log2 firefly/Renilla activity); higher = less repression of the 3' UTR reporter
# Conditions in all cases: HEK293T; 48 h
# [1] = system: MYC
# Summary of the method: (§1)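 The interaction score is based on the log-transformed firefly/Renilla luciferase ratio, scaled as a robust z-score within each plate by median and median absolute deviation and median-centred for each miRNA; more negative scores indicate interaction. It was averaged over at least two independent screens. Readings were taken 48 h after HEK293T cells (10,000/well, 96-well plates) were co-transfected by DharmaFECT Duo with 100 ng firefly luc2P 3' UTR reporter, 20 ng Renilla pRL-TK and 2.5 pmol miRNA mimic.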
# [2] = system: NOTCH1
# Summary of the method: as §1
# [3] = system: PHOX2B
# Summary of the method: as §1
# [4] = system: HRAS
# Summary of the method: as §1
# [5] = system: RB1
# Summary of the method: as §1
# [6] = system: MYT1L
# Summary of the method: as §1
# [7] = system: BRCA2
# Summary of the method: as §1
# [8] = system: MYB
# Summary of the method: as §1
# [9] = system: PHF6
# Summary of the method: as §1
# [10] = system: MYCN
# Summary of the method: as §1
# [11] = system: ZEB2
# Summary of the method: as §1
# [12] = system: TP53
# Summary of the method: as §1
# [13] = system: FBXW7
# Summary of the method: as §1
# [14] = system: EZH2
# Summary of the method: as §1
Sequence,3' UTR reporter interaction score [1],3' UTR reporter interaction score [2],3' UTR reporter interaction score [3],3' UTR reporter interaction score [4],3' UTR reporter interaction score [5],3' UTR reporter interaction score [6],3' UTR reporter interaction score [7],3' UTR reporter interaction score [8],3' UTR reporter interaction score [9],3' UTR reporter interaction score [10],3' UTR reporter interaction score [11],3' UTR reporter interaction score [12],3' UTR reporter interaction score [13],3' UTR reporter interaction score [14]
AAAAGUGCUUACAGUGCAGGUAGC,0.278,0.451,-0.496,0.892,0.176,-1.75,0.703,-0.0116,1.56,-0.211,0.747,-0.24,-0.263,-0.783
AGAGGUAGUAGGUUGCAUAGU,-2.12,-0.39,-0.956,1,-0.186,-0.701,0.509,0.728,0.956,-3.2,-0.685,0.943,-0.0422,-3.25
AAAGUGCUGCGACAUUUGAGCGU,0.745,1.03,0.221,0.79,1.06,-0.68,0.603,-1.18,1.58,0.612,-0.121,-1.1,0.296,-1.36
CAAAAAUCUCAAUUACUUUUGC,0.393,-0.966,0.42,-0.151,-0.319,0.42,-0.215,-1.38,-0.915,0.123,-0.266,0.17,0.748,0.0697
CUUUCAGUCGGAUGUUUGCAGC,0.164,0.454,0.68,0.271,-0.473,0.0662,-0.362,0.557,-0.502,-0.166,0.565,-0.309,-0.137,-0.356
AUCAUGAUGGGCUCCUCGGUGU,-1.04,-2.44,-0.574,0.527,0.226,1.53,-0.103,0.47,0.0291,-1.14,0.672,0.202,-2.53,-0.332
CUUCUUGUGCUCUAGGAUUGU,0.759,-0.719,-1.49,0.138,0.605,-0.427,-1.63,0.218,-0.418,0.82,0.0232,-0.0486,-1.11,0.0594
UCCAGCAUCAGUGAUUUUGUUGA,-0.461,-0.191,1.43,-0.335,-0.243,-0.429,0.64,0.387,0.0153,-0.105,0.915,-0.53,-0.0681,0.0592
UGAAGGUCUACUGUGUGCCAG,-0.0308,-0.37,0.626,-0.000203,-1.18,-2.06,-0.173,0.992,-1.33,0.394,0.194,1.34,0.56,0.277
